pIC50, pKi: −log10 of the molar value. Numbered stars: 1 amine (or outer) side, 2 acyl side, 3 side chain; on linkers, the order of the positions; unused ones are H or OH. Square brackets hold non-standard residues; d marks the D form. Peptide text beside a SMILES is read from it. X1 = O=C([C@H]1CCCN1C[C@@H](O)[C@@H](Cc1ccccc1)N[*:1])[*:2]
The compounds below were run against T1, Human immunodeficiency virus type 1 protease (Human immunodeficiency virus 1, UniProt Q72874) (assay: In vitro inhibition of HIV protease, using a peptide hydrolysis assay).
`CC(C)(C)OC(=O)N[C@@H](Cc1ccccc1)[C@H](O)CN[C@H](Cc1ccccc1)C(=O)N[C@H]1c2ccccc2C[C@H]1O` was tested, and the pIC50 was 5.14. Compound `CC(C)(C)OC(=O)N[C@@H](Cc1ccccc1)[C@@H](O)CN[C@@H](Cc1ccccc1)C(=O)N[C@H]1c2ccccc2C[C@H]1O` has a pIC50 of 5.33. Compound `CC(C)(C)OC(=O)N[C@@H](Cc1ccccc1)[C@@H](O)CN[C@H](Cc1ccccc1)C(=O)N[C@H]1c2ccccc2C[C@H]1O` has a pIC50 of 4.63. In the case of `CC(C)(C)OC(=O)N[C@@H](Cc1ccccc1)C(O)CNC(Cc1ccccc1)C(=O)NC(CO)c1ccccc1` (stereo not given in full), the pIC50 was 4.42. With `CC(C)(C)OC(=O)N[C@@H](Cc1ccccc1)[C@H](O)CN[C@@H](Cc1ccccc1)C(=O)N[C@H]1c2ccccc2C[C@H]1O` the pIC50 was 6.60. In the case of `CC(C)(C)OC(=O)N[C@@H](Cc1ccccc1)[C@H](O)CNC(C(=O)N[C@H]1c2ccccc2C[C@H]1O)C(O)c1ccccc1` (stereo in doubt; 12), the pIC50 was 5.07. For `CC(C)(C)OC(=O)N[C@@H](Cc1ccccc1)[C@H](O)CNC(C(=O)N[C@H]1c2ccccc2C[C@H]1O)C(O)c1ccccc1` (stereo in doubt; 13), the pIC50 was 5.07.

Each compound was assayed against T1, Human immunodeficiency virus type 1 protease (assay: In vitro inhibition of HIV-Protease, using a peptide hydrolysis assay).
In the case of `NC(=O)CC(N)C(=O)N[C@@H](Cc1ccccc1)[C@H](O)CN[C@@H](Cc1ccccc1)C(=O)NC1c2ccccc2C[C@H]1O` (stereo not given in full), the pIC50 was 5.96. `CC(C)(C)OC(=O)NC(CC(N)=O)C(=O)N[C@@H](Cc1ccccc1)C(O)CN[C@@H](Cc1ccccc1)C(=O)NC1c2ccccc2C[C@H]1O` (stereo not given in full) gave a pIC50 of 6.53. For `N[C@@H](Cc1ccccc1)C(O)CN[C@@H](Cc1ccccc1)C(=O)NC1c2ccccc2C[C@H]1O` (stereo not given in full), the pIC50 was 4.20. `CC(C)(C)NC(=O)C(Cc1ccccc1)NCC(O)[C@H](Cc1ccccc1)NC(=O)OC(C)(C)C` (stereo not given in full) gave a pIC50 of less than 4.00. In the case of `NC(=O)CC(NC(=O)c1ccc2ccccc2n1)C(=O)N[C@@H](Cc1ccccc1)[C@H](O)CN[C@@H](Cc1ccccc1)C(=O)NC1c2ccccc2C[C@H]1O` (stereo not given in full), the pIC50 was 8.27. `CC(C)(C)OC(=O)N[C@@H](Cc1ccccc1)[C@H](O)CN1C[C@H]2CCCC[C@H]2C[C@H]1C(=O)NC1c2ccccc2CC1O` (stereo not given in full) was tested, and the pIC50 was less than 5.52. `CC(C)(C)NC(=O)[C@@H]1C[C@@H]2CCCC[C@@H]2CN1C[C@@H](O)[C@H](Cc1ccccc1)NC(=O)OC(C)(C)C` showed a pIC50 of less than 5.52. With `CC[C@H](C)[C@H](NC(=O)[C@H]1CCCN1C[C@@H](O)[C@@H](Cc1ccccc1)NC(=O)[C@H](CC(N)=O)NC(=O)[C@H](CC(C)C)NC(=O)[C@@H](N)CO)C(=O)N[C@H](C(=O)OC)C(C)C` (H-SLN[X1]IV-OMe) the pKi was 9.62.

— ChEMBL document CHEMBL1125473, “A series of potent HIV-1 protease inhibitors containing a hydroxyethyl secondary amine transition state isostere: synthesis, enzyme inhibition, and antiviral activity” (J Med Chem, 1992)
